#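 Tested at 5 concentrations; 48 h exposure; 96-well plates; endpoints linearly interpolated, else capped at highest concentration. Abbreviation: GI50, concentration required for 50% inhibition of growth. TGI: total growth inhibition.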
# Tests used:
# Experiment in all cases: DTP human tumour cell line panel, 48 h
# U251 CNS = test system: U251 CNS
# TK-10 renal = test system: TK-10 renal
# A549 NSCLC = test system: A549 NSCLC
# NCI/ADR-RES ovarian = test system: NCI/ADR-RES ovarian
# HOP-92 NSCLC = test system: HOP-92 NSCLC
# HCC-2998 colon = test system: HCC-2998 colon
# PC-3 prostate = test system: PC-3 prostate
# SK-MEL-28 melanoma = test system: SK-MEL-28 melanoma
# K-562 leukemia = test system: K-562 leukemia
# CCRF-CEM leukemia = test system: CCRF-CEM leukemia
# MDA-MB-468 breast = test system: MDA-MB-468 breast
# LOX IMVI melanoma = test system: LOX IMVI melanoma
# 786-0 renal = test system: 786-0 renal
# MDA-MB-231 breast = test system: MDA-MB-231 breast
# SK-OV-3 ovarian = test system: SK-OV-3 ovarian
# UACC-257 melanoma = test system: UACC-257 melanoma
# IGROV1 ovarian = test system: IGROV1 ovarian
# HCT-116 colon = test system: HCT-116 colon
# EKVX NSCLC = test system: EKVX NSCLC
# COLO 205 colon = test system: COLO 205 colon
# MCF7 breast = test system: MCF7 breast
# HCT-15 colon = test system: HCT-15 colon
# SN12C renal = test system: SN12C renal
# OVCAR-3 ovarian = test system: OVCAR-3 ovarian
# RXF 393 renal = test system: RXF 393 renal
# HS 578T breast = test system: HS 578T breast
# HL-60(TB) leukemia = test system: HL-60(TB) leukemia
# CAKI-1 renal = test system: CAKI-1 renal
# NCI-H460 lung = test system: NCI-H460 lung
structure (smiles),measurement,setting,value
CN(C)c1nc(NCCNS(=O)(=O)c2ccc(C(=O)/C=C/c3ccc(Cl)cc3)cc2)nc(Nc2ccc(F)cc2)n1,GI50,U251 CNS,5.25 µM
same,TGI,U251 CNS,18.6 µM
same,GI50,TK-10 renal,11.7 µM
same,TGI,TK-10 renal,30.3 µM
same,GI50,A549 NSCLC,4.52 µM
same,TGI,A549 NSCLC,17.4 µM
same,GI50,NCI/ADR-RES ovarian,5.49 µM
same,TGI,NCI/ADR-RES ovarian,18.4 µM
same,GI50,HOP-92 NSCLC,3.83 µM
same,TGI,HOP-92 NSCLC,14.7 µM
same,GI50,HCC-2998 colon,2.48 µM
same,TGI,HCC-2998 colon,6.9 µM
same,GI50,PC-3 prostate,3.74 µM
same,TGI,PC-3 prostate,14.1 µM
same,GI50,SK-MEL-28 melanoma,6.77 µM
same,TGI,SK-MEL-28 melanoma,20.1 µM
same,GI50,K-562 leukemia,3.29 µM
same,TGI,K-562 leukemia,> 100 µM
same,GI50,CCRF-CEM leukemia,3.75 µM
same,TGI,CCRF-CEM leukemia,> 100 µM
same,GI50,MDA-MB-468 breast,3.71 µM
same,TGI,MDA-MB-468 breast,14.8 µM
same,GI50,LOX IMVI melanoma,2.74 µM
same,TGI,LOX IMVI melanoma,9.16 µM
same,GI50,786-0 renal,7.28 µM
same,TGI,786-0 renal,20.2 µM
same,GI50,MDA-MB-231 breast,4.72 µM
same,TGI,MDA-MB-231 breast,17.4 µM
same,GI50,SK-OV-3 ovarian,11.5 µM
same,TGI,SK-OV-3 ovarian,27.7 µM
same,GI50,UACC-257 melanoma,8.36 µM
same,TGI,UACC-257 melanoma,21.8 µM
same,GI50,IGROV1 ovarian,8.58 µM
same,TGI,IGROV1 ovarian,21.4 µM
same,GI50,HCT-116 colon,1.66 µM
same,TGI,HCT-116 colon,3.11 µM
same,GI50,EKVX NSCLC,3.11 µM
same,TGI,EKVX NSCLC,14.7 µM
same,GI50,COLO 205 colon,5.96 µM
same,TGI,COLO 205 colon,18.7 µM
same,GI50,MCF7 breast,2.28 µM
same,TGI,MCF7 breast,6.33 µM
same,GI50,HCT-15 colon,4.62 µM
same,TGI,HCT-15 colon,16.9 µM
same,GI50,SN12C renal,3.79 µM
same,TGI,SN12C renal,15.9 µM
same,GI50,OVCAR-3 ovarian,3.16 µM
same,TGI,OVCAR-3 ovarian,11.9 µM
same,GI50,RXF 393 renal,3.09 µM
same,TGI,RXF 393 renal,15.1 µM
same,GI50,HS 578T breast,11.4 µM
same,TGI,HS 578T breast,58.1 µM
same,GI50,HL-60(TB) leukemia,4.39 µM
same,TGI,HL-60(TB) leukemia,> 100 µM
same,GI50,CAKI-1 renal,4.93 µM
same,TGI,CAKI-1 renal,19.5 µM
same,GI50,NCI-H460 lung,3.38 µM
same,TGI,NCI-H460 lung,13.8 µM
